The values that follow come from article PMC9481570, “A small molecule antagonist of SMN disrupts the interaction between SMN and RNAP II” (Nature Communications, 2022).

Each structure is given as a SMILES string.

Experiment [1] has as its target T1, 53BP1 (Homo sapiens, UniProt Q12888).
T1 construct: 53BP1 (aa 1483–1606); His (N, cleaved yes); made in house; host or cells: E. coli BL21 (DE3) Codon plus RIL
Nature of the experiment: ITC binding to 53BP1. As to conditions: Fig. 1c. An excerpt:
(§1) The coding DNA fragments of following Tudor domains were cloned into pET28-MHL vector: SMN (aa 82–147), UHRF1 (aa 126–285), SMNDC1 (aa 53–130), TDRD3 (aa 554–611), SND1 (aa 650–910), TDRD2 (aa 327–420), FXR1 (aa 2–132), PHF1 (aa 28–87), SGF29 (aa 115–293), JMJD2A (aa 897–1101), 53BP1 (aa 1483–1606), SETDB1 (aa 190–410), LBR (aa 1–67), ZGPAT (aa 120–271). The coding regions of chromodomain of CBX7 (aa 8–62), PWWP domain of DNMT3A (aa 275–417), WD40 repeats of WDR5 (aa 24–334) and CW domain of ZCWPW2 (aa 21–78) were also subcloned into pET28-MHL vector to generate N-terminally His-tagged fusion protein. The MBT repeats of L3MBTL1 (aa 200–522) and L3MBTL2 (aa 170–625) were subcloned into pET28GST-LIC vector to generate N-terminally GST-His-tagged fusion protein. All the plasmids were generated by ligase independent cloning (Vazyme Biotech, C112 or ABclonal Technology, RK21020). […] The molecular weight of all protein samples was measured by mass spectrometry.
(§2) For the ITC measurement, the concentrated proteins were diluted into 20 mM Tris-HCl, pH 7.5, 150 mM NaCl (ITC buffer); the lyophilized compounds were dissolved in the same buffer, and the pH value was adjusted by adding 2 M NaOH or 2 M HCl. […] Compound concentrations were calculated from the mass and the volume of the solvent. […]

The target in experiment [2] is T2, LBR (Homo sapiens, UniProt Q14739).
T2 construct: LBR (aa 1–67); His (N, cleaved yes); made in house; host or cells: E. coli BL21 (DE3) Codon plus RIL
T2 sequence (Q14739 1-67): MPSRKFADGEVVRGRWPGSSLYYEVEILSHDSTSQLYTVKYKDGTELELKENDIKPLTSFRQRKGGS
The experiment can be described thus: ITC binding to LBR. Particulars: Fig. 1c.
Source text: as §1, §2

For experiment [3], the target named is T3, DNMT3A (PWWP) (Homo sapiens, UniProt Q9Y6K1).
T3 construct: DNMT3A (aa 275–417); His (N, cleaved yes); made in house; host or cells: E. coli BL21 (DE3) Codon plus RIL
T3 sequence (Q9Y6K1 275-417): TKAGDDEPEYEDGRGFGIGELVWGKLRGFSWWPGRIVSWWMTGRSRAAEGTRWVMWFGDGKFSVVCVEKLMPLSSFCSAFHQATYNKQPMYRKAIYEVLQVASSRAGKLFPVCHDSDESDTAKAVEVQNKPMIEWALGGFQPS
Nature of the experiment: ITC binding to PWWP domain of DNMT3A. Particulars: Fig. 1c.
Source text: as §1, §2

The target in experiment [4] is T4, SMN_Y130A (Homo sapiens, UniProt Q16637, Y130A).
T4 construct: cloned into pET28-MHL vector: SMN (aa 82–147); His (N, cleaved yes); made in house; host or cells: E. coli BL21 (DE3) Codon plus RIL
T4 sequence (Q16637 82-147 Y130A): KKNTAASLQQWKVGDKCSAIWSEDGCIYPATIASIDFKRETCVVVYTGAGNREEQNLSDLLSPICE
The experiment can be described thus: ITC binding to SMN Tudor mutant Y130A. As to conditions: Fig. 3d.
Source text: as §1, §2

For experiment [5], the target named is T5, SMN_N132A (Homo sapiens, UniProt Q16637, N132A).
T5 construct: cloned into pET28-MHL vector: SMN (aa 82–147); His (N, cleaved yes); made in house; host or cells: E. coli BL21 (DE3) Codon plus RIL
T5 sequence (Q16637 82-147 N132A): as the sequence (Q16637 82-147 Y130A) above, with A49Y, N51A counted along it
Nature of the experiment: ITC binding to SMN Tudor mutant N132A. Particulars: Fig. 3d.
Source text: as §1, §2

Experiment [6] has as its target T6, TDRD3_Y566W (Homo sapiens, UniProt Q9H7E2, Y566W).
T6 construct: TDRD3 (aa 554–611); His (N, cleaved yes); made in house; host or cells: E. coli BL21 (DE3) Codon plus RIL
The experiment can be described thus: ITC binding to TDRD3 mutant Y566W. As to conditions: Supplementary Fig. 11b, iTC-200; read-out: Kd, ITC binding curve, TDRD3_Y566W.
Source text: as §1, §2

Experiment [7] concerns UHRF1_TTD aromatic cage residues mutated to alanine. The experiment can be described thus: ITC binding to UHRF1 TTD aromatic cage mutants. As to conditions: Supplementary Fig. 9e.
Source text: as §1, §2

Experiment [8] concerns the target T7, SMN (Homo sapiens, UniProt Q16637).
T7 construct: endogenous in cells; host or cells: U2OS
The experiment can be described thus: Biotin-Cmpd 1 pulldown from U2OS cell lysates and western blotting, SMN. Particulars: U2OS cell lysate, 200 μM biotin-free competitor, 20 μM biotin-Cmpd 1. The experiment is classed as binding. The procedure:
U2OS cells were lysed in RIPA buffer (140 mM NaCl, 10 mM Tris-HCl, pH 7.6, 1% Triton, 0.1% sodium deoxycholate, 1 mM EDTA) containing protease inhibitors (Roche, 05892791001). The cell lysate was incubated with 20 μM biotin-Cmpd 1 overnight at 4 °C, then 30 μL streptavidin beads (Thermo Fisher, 20353) was added and incubated at 4 °C for 1 h. The beads were then washed with RIPA buffer for 3 times, 10 min/time and loading buffer was added and boiled for 5 min for elution. The eluted samples were separated by SDS-PAGE for western blotting (SMN monoclonal antibody, BD Transduction Laboratories, 610646, clone No. 8, dilution of 1:1000; TDRD3 rabbit monoclonal antibody, Cell signaling, 5492, clone No. 5492, dilution of 1:1000; SND1 polyclonal antibody, Bethyl, A302-883A, dilution of 1:2000; RFP polyclonal antibody, Abcam, ab62341, dilution of 1:1000; GFP monoclonal antibody, Santa Cruz Biotechnology, sc-9996, dilution of 1:1000; Streptavidin-Horseradish Peroxidase (HRP), Invitrogen, SA10001, dilution of 1:5000) as previously described[52],[53]. For the competition analysis, 200 μM biotin-free compound 1 or compound 15 was added at the same time when the biotin-Cmpd 1 was incubated with the cell lysates.
(In general: A western blot detects proteins with antibodies after separation by electrophoresis.)

T1 sequence (Q12888 1483-1606): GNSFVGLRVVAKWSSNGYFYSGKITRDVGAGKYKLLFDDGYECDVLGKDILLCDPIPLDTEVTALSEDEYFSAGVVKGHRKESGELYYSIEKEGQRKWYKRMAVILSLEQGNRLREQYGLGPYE
T7 sequence (Q16637 whole entry): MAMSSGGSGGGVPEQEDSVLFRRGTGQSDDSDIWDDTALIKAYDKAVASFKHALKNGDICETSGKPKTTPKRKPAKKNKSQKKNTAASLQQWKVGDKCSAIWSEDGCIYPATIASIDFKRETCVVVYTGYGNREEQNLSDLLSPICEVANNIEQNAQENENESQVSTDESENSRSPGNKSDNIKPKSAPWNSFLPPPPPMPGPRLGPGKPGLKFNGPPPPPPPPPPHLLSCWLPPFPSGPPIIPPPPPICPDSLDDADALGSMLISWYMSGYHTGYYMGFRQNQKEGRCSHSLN
T6 sequence (Q9H7E2 554-611 Y566W): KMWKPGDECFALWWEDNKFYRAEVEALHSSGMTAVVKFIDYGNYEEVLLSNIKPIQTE

Turning to `Cn1c2c(c(=N)c3c1CCC3)CCC2` [Compound 1, 4-methyl-2,3,4,5,6,7-hexahydrodicyclopenta[b,e]pyridin-8(1H)-imine], the Kd in experiment [1] was above 244 µM; in experiment [2], above 244 µM; in experiment [3], above 244 µM; in experiment [4], above 244 µM; in experiment [5], 70 ± 6 µM; in experiment [6], 3.8 ± 0.4 µM. Also, the “binding affinity to UHRF1_TTD aromatic cage alanine mutants” value in experiment [7] is reported as “not affected significantly”. Moreover, the “competition of the pulldown of SMN by biotin-Cmpd 1” value in experiment [8] was “competed out”.

Usually Kd stands for the constant that tells how readily two partners part at equilibrium.
